Tested on: eyelids
Experiment: topical application to the eyelids, eyelid retraction / eye-widening effect
Format: in vivo
Conditions: topically applied, alone or in combination
Source text: Topical treatments to which the current application is directed include ointments, creams, and solutions that contain one or more of the compounds travoprost, unoprostone, latanoprost, and bimatoprost, alone or in combination, and/or one or more chemically-related compounds and may also include pure forms of various additional types of prostaglandin, synthetic prostaglandin, and synthetic prostaglandin anologues. These ointments and solutions are topically applied to eyelids in order to treat ptosis and/or to improve facial appearance. The ointments and solution may include, in addition to the above-mentioned active ingredients, stabilizers, buffering compounds, salts, carriers, viscosity enhancers, colorants, emollients, emulsifiers, bactericidal and germicidal agents, preservatives, and other ingredients that improve shelf life, application, consistency, and compatibility with topical application, among other things. […] Either pure prostaglandin, synthetic prostaglandin, or synthetic prostaglandin analogues may be rubbed into the eyelid tissues or a relatively concentrated solution of prostaglandin in any of various organic solvents, including ethanol, or ethanol-water mixtures, can be applied to produce the effect. Prostaglandin, synthetic prostaglandin, or synthetic prostaglandin analogs may be additionally included in various eye shadows and other cosmetic products that are routinely applied to eyelids in order to produce the eye-widening cosmetic effect, as well as in many different mixtures, suspensions, solutions, powders, ointments, creams, and other substances.

Structure (SMILES)	eyelid retraction (ameliorating ptosis and/or improving facial appearance)
CCNC(=O)CCCC=CCC1C(O)CC(O)C1C=CC(O)CCc1ccccc1 (stereo not shown) [bimatoprost, 7-[3,5-dihydroxy-2-(3-hydroxy-5-phenyl-pent-1-enyl)-cyclopentyl]-N-ethyl-hept-5-enamide]	cause the eyelids to retract more completely
CC(C)OC(=O)CCC/C=C\C[C@@H]1[C@@H](CC[C@@H](O)CCc2ccccc2)[C@H](O)C[C@@H]1O [latanoprost, isopropyl (Z)-7-[(1R,2R,3R,5S)-3,5-dihydroxy-2-[(3R)3-hydroxy-5-phenylpentyl]-cyclopentyl]hept-5-enoate]	cause the eyelids to retract more completely
CC(C)OC(=O)CCCC=CCC1C(O)CC(O)C1C=CC(O)COc1cccc(C(F)(F)F)c1 (stereo not shown) [travoprost, propan-2-yl 7-[3,5-dihydroxy-2-[3-hydroxy-4-[3-(trifluoromethyl)phenoxy]-but-1-enyl]-cyclopentyl]hept-5-enoate]	cause the eyelids to retract more completely
CCCCCCCC(=O)CC[C@@H]1[C@@H](C/C=C\CCCC(=O)OC(C)C)[C@@H](O)C[C@H]1O [unoprostone, isopropyl (Z)-7-[(1R,2R,3R,5S)-3,5-dihydroxy-2-(3-oxodecyl)cyclopentyl]hept-5-enoic acid]	cause the eyelids to retract more completely
